Data as given in patent US20260132123A1, “ABAD INHIBITOR COMPOUNDS” (UNIVERSITY COURT OF THE UNIVERSITY OF ST ANDREWS, priority 2021, published 2026).
pEC50: −log10 of the molar value.

Target: T1, 17β-HSD10 (Homo sapiens, UniProt Q99714)
T1 construct: Histev (histidine tag with TEV site) (N, cleaved yes); made in house; host or cells: E. coli BL21-CodonPlus
T1 sequence (Q99714 1-261): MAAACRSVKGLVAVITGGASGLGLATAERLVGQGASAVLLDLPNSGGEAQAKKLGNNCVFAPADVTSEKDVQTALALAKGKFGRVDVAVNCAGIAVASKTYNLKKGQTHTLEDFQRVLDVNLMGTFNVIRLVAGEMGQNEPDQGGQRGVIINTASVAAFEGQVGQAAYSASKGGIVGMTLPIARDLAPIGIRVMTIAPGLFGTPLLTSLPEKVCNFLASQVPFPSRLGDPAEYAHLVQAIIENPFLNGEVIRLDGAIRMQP
Assay: 17β-HSD10 (ABAD) enzyme inhibition assay, NADH oxidation read at 340 nm (primary screen and dose response)
Format: biochemical
Conditions: for pEC50 / Max. Effect (%) / Hill Slope / Max. Fit / Min. Fit: recombinant 17βHSD10 enzyme assay; for Hill Slope / Max. Fit / Min. Fit: curve fit
Outline: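 Tag-cleaved recombinant human 17β-HSD10 (2.5 nM) preincubated 15 min with compound in Tris pH 7.4, NaCl, DTT, Tween, BSA (catalase in some runs), then 100 μM acetoacetyl-CoA and NADH added. NADH oxidation by A340 fall: 35 min endpoint for screening at 10 μM; continuous 45 min for dose response.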

CCN(C(=O)c1ccccc1F)c1cccc2c1ncc(=O)n2Cc1cnc[nH]1 [S2−T2, N-ethyl-2-fluoro-N-[1-(1H-imidazol-5-ylmethyl)-2-oxo-1,2 dihydroquinoxalin-5-yl]benzamide]
pEC50: < 4.70
Max. Effect (%): 4.8%

COc1cccc(-c2ccccc2[C@@H]2CCCN2C(=O)c2cocn2)c1 (racemic) [ESC1002598]
pEC50: < 4.70
Max. Effect (%): 50%

CN(Cc1cnc[nH]1)c1ccc2c(c1)N(C(=O)c1ccccc1F)CCC2 [ESC1002083, (2-fluorophenyl)-[7-[1H-imidazol-5-ylmethyl(methyl)amino]-3,4-dihydro-2H-quinolin-1-yl]methanone]
pEC50: < 4.70
Max. Effect (%): 2%

Cc1ccsc1C(=O)N1CCC[C@H]1c1ccccc1-c1cccc(C(F)(F)F)c1 (racemic) [ESC1002789]
Max. Effect (%): 11%

O=C(c1sccc1Cl)N1CCC[C@H]1c1ccccc1-c1ccnc(O)c1 (racemic) [ESC1002697]
17β-HSD10 / ABAD activity in words (SAR discussion): less active
pEC50: < 4.70
Max. Effect (%): 43%

COc1cccc(-c2ccccc2[C@H]2CCCN2C(=O)c2snnc2C)c1 [ESC1002429]
17β-HSD10 / ABAD activity in words (SAR discussion): significantly less active
pEC50: < 4.70
Max. Effect (%): 6%

Cc1ccsc1C(=O)N1CCC[C@H]1c1ccccc1-c1cccc(C(F)(F)F)c1 (single isomer, unassigned) [ESC1002790]
pEC50: 6.18

COc1cccc(-c2ccccc2[C@@H]2CCCN2C(=O)c2sccc2C)c1 (single isomer, unassigned) [ESC1002421]
pEC50: 6.73
Max. Effect (%): 97%
Hill Slope: 1.6
Max. Fit: 95
Min. Fit: 11

CNC(=O)CN(C)c1cccc(N(CC(C)C)C(=O)c2ccccc2F)c1 [ESC1002572]
pEC50: 4.95
Max. Effect (%): 65%
Hill Slope: 0.98
Max. Fit: 100
Min. Fit: 2

O=C(c1[nH]ncc1Cl)N1CCC[C@H]1c1ccccc1-c1cccc(O)c1 (single isomer, unassigned) [ESC1002798]
pEC50: < 4.70
Max. Effect (%): 18%

O=C(c1sccc1Cl)N1CCC[C@H]1c1ccccc1-c1ccc(O)cc1 (racemic) [ESC1002696]
pEC50: 6.52
Max. Effect (%): 97%
Hill Slope: 1.2
Max. Fit: 97
Min. Fit: 1

Cc1cc(CN(C(=O)c2ccccc2F)c2cccc(N(C)Cc3c[nH]cn3)c2)no1 [ESC1002516, 2-fluoro-N-[3-[1H-imidazol-4-ylmethyl(methyl)amino]phenyl]-N-[(5-methylisoxazol-3-yl)methyl]benzamide]
pEC50: < 4.70
Max. Effect (%): 46%

COc1cc(-c2ccccc2[C@@H]2CCCN2C(=O)c2sccc2Cl)ccn1 (racemic) [ESC1002665]
pEC50: 6.22
Max. Effect (%): 95%
Hill Slope: 1
Max. Fit: 97
Min. Fit: −3

CC(C)CN(C(=O)c1ccccc1F)c1cccc(N(C)Cc2cc[nH]n2)n1 [ESC1002796]
pEC50: < 4.70
Max. Effect (%): 47%
Hill Slope: 1.2
Max. Fit: 100
Min. Fit: −4

Cc1ccsc1C(=O)N1CCC[C@H]1c1ccccc1-c1cccc(Cl)c1 (single isomer, unassigned) [ESC1002768]
pEC50: < 4.70
Max. Effect (%): 12%

O=C(c1ccccc1F)N1CCCc2ccc(NCc3cnc[nH]3)cc21 [ESC1002081, (2-fluorophenyl)-[7-(1H-imidazol-5-ylmethylamino)-3,4-dihydro-2H-quinolin-1-yl]methanone]
17β-HSD10 / ABAD activity in words (SAR discussion): potency was abolished
pEC50: < 4.70
Max. Effect (%): 0%

O=C(c1sccc1Cl)N1CCC[C@H]1c1ccccc1-c1cc(O)ccc1F (single isomer, unassigned) [ESC1002843]
pEC50: 4.97
Max. Effect (%): 70%
Hill Slope: 1.1
Max. Fit: 100
Min. Fit: −1

COc1cccc(-c2ccccc2[C@H]2CCCN2C(=O)c2ccc(C)s2)c1 [ESC1002426]
pEC50: < 4.70
Max. Effect (%): 22%

Cc1ccsc1C(=O)N1CCC[C@H]1c1ccccc1-c1cccc(C(F)(F)F)c1 (single isomer, unassigned) [ESC1002789]
pEC50: < 4.70

CC(C)CN(C(=O)c1ccccc1F)c1cccc(N(C)CC#N)c1 [ESC1002762]
pEC50: < 4.70
Max. Effect (%): 39%

C#CCN(C)c1cccc(N(CC(C)C)C(=O)c2ccccc2F)c1 [ESC1002636]
pEC50: 5.26
Max. Effect (%): 79%
Hill Slope: 0.98
Max. Fit: 101
Min. Fit: −1

CC(C)CN(C(=O)c1ccccc1C(F)(F)F)c1cccc(N(C)Cc2c[nH]cn2)c1 [ESC1002493, N-[3-[1H-imidazol 4-ylmethyl(methyl)amino]phenyl]-N-isobutyl-2-(trifluoromethyl)benzamide]
pEC50: 6.01
Max. Effect (%): 94%
Hill Slope: 0.75
Max. Fit: 104
Min. Fit: −8

COc1cccc(-c2ccccc2[C@@H]2CCCN2C(=O)C(C)(C)C)c1 (racemic) [ESC1002604]
pEC50: < 4.70
Max. Effect (%): 20%

O=C(c1sccc1Cl)N1CCC[C@H]1c1ccccc1-c1cccc(O)c1F (single isomer, unassigned) [ESC1002841]
pEC50: < 4.70
Max. Effect (%): 27%

CC(C)CN(C(=O)c1cnccn1)c1cccc(N(C)Cc2c[nH]cn2)c1 [ESC1002656, N-[3-[1H-imidazol-4-ylmethyl(methyl)amino]phenyl]-N-isobutyl-pyrazine-2-carboxamide]
pEC50: < 4.70
Max. Effect (%): 45%

COc1cccc(-c2ccccc2[C@@H]2CCCN2C(=O)c2[nH]ncc2Cl)c1 (single isomer, unassigned) [ESC1002756]
pEC50: < 4.70
Max. Effect (%): 24%

O=C(c1[nH]ncc1Cl)N1CCC[C@H]1c1ccccn1 [S1−T17, 2-[(2S)-1-[(4-chloro-1H-pyrazol-5-yl)carbonyl]pyrrolidin-2-yl]pyridine]
pEC50: < 4.70
Max. Effect (%): 17.5%

Cn1cc(-c2ccccc2[C@@H]2CCCN2C(=O)c2sccc2Cl)cn1 (racemic) [ESC1002704]
pEC50: 5.97
Max. Effect (%): 98%
Hill Slope: 1
Max. Fit: 103
Min. Fit: −10

O=C(c1sccc1Cl)N1CCC[C@H]1c1ccccc1-c1ccc(F)c(O)c1 (single isomer, unassigned) [ESC1002839]
pEC50: 5.38
Max. Effect (%): 85%
Hill Slope: 1.1
Max. Fit: 96
Min. Fit: −4

CC(C)CN(C(=O)c1ccccc1F)c1cccc(NCc2c[nH]cn2)c1 [ESC1002631]
pEC50: 5.03
Max. Effect (%): 64%
Hill Slope: 0.94
Max. Fit: 100
Min. Fit: −6

COc1cccc(-c2ccccc2[C@H]2CCCN2C(=O)c2sccc2C)c1 (single isomer, unassigned) [ESC1002420]
pEC50: < 4.70
Max. Effect (%): 28%

CC(C)CN(C(=O)c1ccccc1F)c1cccc(NCc2nc[nH]n2)c1 [ESC1002763]
pEC50: < 4.70
Max. Effect (%): 8%

COc1cccc(-c2ccccc2[C@H]2CCCN2C(=O)c2cc(C)cs2)c1 [ESC1002428]
pEC50: < 4.70
Max. Effect (%): 16%

COc1cccc(-c2ccccc2[C@@H]2CCCN2Cc2sccc2F)c1 (racemic) [ESC1002695]
17β-HSD10 / ABAD activity in words (SAR discussion): lost all activity
pEC50: < 4.70
Max. Effect (%): 1%

O=C(c1sccc1Cl)N1CCC[C@H]1c1ccccc1-c1cccc(O)c1F (single isomer, unassigned) [ESC1002840]
pEC50: 6.77
Max. Effect (%): 98%
Hill Slope: 1.1
Max. Fit: 97
Min. Fit: −4

COc1cccc(-c2ccccc2[C@@H]2CCCN2C(=O)C(C)C)c1 (racemic) [ESC1002603]
pEC50: < 4.70
Max. Effect (%): 21%
